# According to US12714711B2, “Salts of neuroceuticals and uses thereof” (priority 2020, dated 2026):
# Key:
# in vivo = settings: rat, po
# Procedure: All animals used in this study were adult rats (at least 2.5 months of age).
# Male Sprague-Dawley rats having a bodyweight between 250-300 g were randomly assigned to two groups. […] The chemicals were suspended in sesame oil and administrated by single oral gavage at 2 ml/kg. All rats were fasted overnight with free access to water before oral administration of the testing compositions. On the day of dosing, the blood samples were collected at 0 min (prior to dosing), and 0.25, 0.5, 1, 2, 4, 6, 8, and 24 hr post-dosing.
# Blood samples were collected from rat jugular veins and transferred into tubes coated with sodium heparin. To obtain plasma, the blood samples were centrifuged at 2,500×g for 15 min at 4° C. and the supernatants were collected and kept frozen in a freezer at −80° C., until they were analyzed.
# The plasma concentration of donepezil was determined by LC/MS. The chromatographic separation was carried out on a 5 μm EVO C8 100 Å LC column (100×4.6 mm, Kinetex®). The mobile phase was 0.1% formic acid in water and acetonitrile:methanol=8:2 set as gradient. Flow rate used was 0.3 mL/min. Column temperature was maintained at 40° C. and the injection volume was 30 μL.
# The pharmacokinetic parameters were calculated using non-compartmental analysis (NCA) with WinNonlin to assess the systemic exposure of donepezil in rats.
# [1] = Water solubility at 25° C.; settings: for solubility: water, 25 °C; for water solubility: 25° C.
# MK-801 treated mice = experiment: Open field test, MK-801 induced hyper-locomotion; settings: for Open-field test, anti-hyperactivity effect (formula [formula] not readable) / Open-field test effect (formula [formula] not readable): acute oral; for Open-field test, anti-hyperactivity effect (formula [formula] not readable): mice; for locomotor activity in MK-801 treated mice: MK-801 0.2 mg/kg i.p.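 For all read-outs here: adult male C57BL/6J mice, locomotion counted as total photobeam breaks over 60 minutes in an open field photobeam activity system.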
# Procedure: All mice were tested with open field task.
# In this study, the mice were placed in a Plexiglas cage (37.5 cm×21.5 cm×18 cm) under 50-65 lux light intensity. Their spontaneous locomotor activities were measured for 60 minutes using the Photobeam Activity System (PAS)-open field (San Diego Instruments, San Diego, Calif., USA). The total number of photo beam breaks of each mouse was measured as an index of locomotor activity.
# The schizophrenia-like behavior, MK801-induced hyperactivity, were tested by open field task.
# All mice were tested in an open field task.
# The schizophrenia-like behavior, NMDA-hypofunction-induced hyperactivity, were tested by open field task.
# The amount of paliperidone administered to Groups 3 and 4 was equal. The schizophrenia-like behavior, MK801-induced hyperactivity, were tested by open field task.
# The amount of paliperidone administered to Groups 3 and 4 was equal. The schizophrenia-like behavior, NMDA-hypofunction-induced hyperactivity, were tested by open field task.
# [2] = mouse, in vivo, ip, 10 mg/kg
# Procedure: The testing compounds were administered to mice either through intraperitoneal (i.p.) injection or oral gavage before analyzing blood glucose levels.
# For the acute study, two cohorts of mice were used.
# For repeated-dose study, mice were randomly assigned into five groups as listed below. • Group 1: Vehicle control • Group 2: Clz (3 mg/kg) • Group 3: Clz:NA 1:1 salt (4.13 mg/kg) • Group 4: Clz (10 mg/kg) • Group 5: Clz:NA 1:1 salt (13.77 mg/kg)
# The night before blood glucose levels were measured, the mice were fasted. Blood glucose levels were measured with a portable glucose meter (Contour® Plus, Bayer AG, Leverkusen, Germany) After waiting for 60 min, the treatments indicated above were administered. FIG. 75 illustrates the experimental design of this study.
# Two cohorts of mice were used in this study. In cohort 1, mice were randomly assigned into the five groups listed below: • Group 1: Vehicle control • Group 2: NA (3.94 mg/kg) • Group 3: Olz (10 mg/kg) • Group 4: Olz (10 mg/kg)+NA (3.94 mg/kg) • Group 5: Olz:NA 1:1 salt (13.94 mg/kg)
# Dosing occurred 60 min prior to measuring blood glucose levels.
# In cohort 2, mice were randomly assigned into the five groups listed below: • Group 1: Vehicle control • Group 2: Olz (5 mg/kg) • Group 3: Olz:NA 1:1 salt (6.97 mg/kg) • Group 4: Olz (10 mg/kg) • Group 5: Olz:NA 1:1 salt (13.94 mg/kg)
# The night before the glucose tolerance test, the mice fasted. Blood glucose levels were measured in whole blood that was collected from the mouse's tail vein. Glucose levels were measured with a portable glucose meter (Contour® Plus, Bayer AG, Leverkusen, Germany), with the measurement occurring 60 min after the mice were dosed with the treatments indicated above Immediately following the glucose measurement, all mice were subjected to a glucose tolerance test, which involved an intraperitoneal challenge injection of 1 g/kg of glucose, followed by measuring blood glucose levels at 0, 30, 60 and 120 minutes.
# mice = experiment: von Frey test, paw withdrawal threshold; format: in vivo, C57BL/6J male mice; settings: for paw withdrawal threshold compared to vehicle control group / AUC values of von Frey pain threshold compared to vehicle control group / AUC of von Frey pain threshold relative to gabapentin group: mice, single oral dose; for paw withdrawal threshold compared to vehicle control group: gabapentin 20 mg/kg equivalent (salts 192, 106.02, 77.34 mg/kg), 15-180 min; for paw withdrawal threshold compared to vehicle control group / AUC values of von Frey pain threshold compared to vehicle control group: enriched TA 200 mg/kg; for AUC values of von Frey pain threshold compared to vehicle control group: gabapentin 20 mg/kg equivalent; for Pain threshold to time AUC after 120 min: von Frey test, acute oral, 20 mg/kg; for AUC of von Frey pain threshold relative to gabapentin group: same amount of gabapentin (20 mg/kg)
# Procedure: The objective of this experiment was to assess the analgesic effects of gabapentin:enriched tannic acid salts in mice. The testing compounds were administrated to mice by oral gavage before von Frey test (a typical assay for pain sensation).
# Mice used in this study were randomly assigned into six groups: • Group 1: Vehicle control • Group 2: Enriched TA (200 mg/kg) • Group 3: GBP (20 mg/kg) • Group 4: GBP:enriched TA 1:1 salt (192 mg/kg) • Group 5: GBP:enriched TA 2:1 salt (106.02 mg/kg) • Group 6: GBP:enriched TA 3:1 salt (77.34 mg/kg)
# Each mouse in Groups 1-6 received a single, oral dose of 65% PEG400 in ddH2O, enriched tannic acid at 200 mg/kg, gabapentin at 20 mg/kg, gabapentin:enriched tannic acid 1:1 salt (192 mg/kg), gabapentin:enriched tannic acid 2:1 salt (106.02 mg/kg) and gabapentin:enriched tannic acid 3:1 salt (77.34 mg/kg). The amount of gabapentin administered to the mice in Groups 3 to 6 was the same.
# Mice were habituated in individual transparent acrylic box on a wire-mesh floor for 30 min before testing. An electronic von Frey apparatus (Bioseb-EVF4S) was used to measure the paw withdrawal thresholds (g) of each mouse before drug administration (baseline) and at 15, 30, 60, 120 and 180 mins after drug administration.
# [3] = Carr Index (USP 1174), flowability; format: physicochemical
# [4] = GTT, dosage of quetiapine 20 mg/kg
# Procedure: For the acute study, mice were randomly assigned into one of the five groups listed below. • Group 1: Vehicle control • Group 2: NA (3.77 mg/kg) • Group 3: Clz (10 mg/kg) • Group 4: Clz (10 mg/kg)+NA (3.77 mg/kg) • Group 5: Clz:NA 1:1 salt (13.77 mg/kg)
# For the repeated dose study, two cohorts of mice were used. In cohort 1, mice were randomly assigned into one of the three groups listed below. • Group 1: Vehicle control • Group 2: Clz (10 mg/kg) • Group 3: Clz:NA 1:1 salt (13.77 mg/kg)
# In cohort 2, the mice were randomly assigned into one of the three groups listed below. • Group 1: Vehicle control • Group 2: Clz (3 mg/kg) • Group 3: Clz:NA 1:1 salt (4.13 mg/kg)
# To assess glucose tolerance, mice were fasted overnight on day 18 (for cohort 1) and on day 35 (for cohort 2), and their blood glucose response to i.p. administration of glucose (2 g/kg) was determined. Blood glucose levels were assessed in the whole blood collected from the tail vein, 60 min after drug administration Immediately following this glucose measurement, all mice were subjected to a glucose tolerance test by receiving an intraperitoneal challenge injection of 2 g/kg of glucose, and blood glucose levels were measured at 0, 30, 60 and 120 minutes.
# Mice used in this study were randomly assigned into one of the six following groups: • Group 1: Vehicle control • Group 2: Clz (10 mg/kg) • Group 3: Clz (10 mg/kg)+enriched TA (22.5 mg/kg) • Group 4: Clz (10 mg/kg)+enriched TA (11.3 mg/kg) • Group 5: Clz:enriched TA 2:1 salt (32.5 mg/kg) • Group 6: Clz:enriched TA 4:1 salt (21.3 mg/kg)
# One day before the glucose tolerance test, the mice fasted overnight and the blood glucose levels were measured in whole blood collected from the tail vein. Glucose levels were measured using a portable glucose meter (Contour® Plus, Bayer AG, Leverkusen, Germany) 60 min after they were acutely administered with the treatments indicated above Immediately following this glucose measurement, all mice were subjected to a glucose tolerance test by receiving an intraperitoneal challenge injection of 2 g/kg of glucose. Blood glucose levels were measured at 30, 60 and 120 minutes.
# Two cohorts of mice were used in this study. […]
# [5] = MK801 model, dosage of clozapine 1 mg/kg
# [6] = MK801 model, dosage of clozapine 2 mg/kg
# [7] = paliperidone 0.06 mg/kg (benzoic acid salt study)
# [8] = paliperidone 0.06 mg/kg (nicotinic acid salt study)
# [9] = oral paliperidone 0.06 mg/kg or benzoic acid salt 0.076 mg/kg
# [10] = oral paliperidone 0.06 mg/kg or nicotinic acid 1:2 salt 0.094 mg/kg
# [11] = oral quetiapine 10 mg/kg or nicotinic acid salt […]
# [12] = risperidone 10 mg/kg as printed in Table 29
# [13] = oral risperidone 0.06 mg/kg or nicotinic acid salt 0.078 mg/kg
molecule,measurement,setting,value
"CN1CCN(C2=Nc3cc(Cl)ccc3Nc3ccccc32)CC1 [clozapine, reference compound]",AUC,"in vivo; male, Sprague-Dawley, 60 mg/kg",1320 ng·h/mL
same,AUC Increased (%),"in vivo; male, Sprague-Dawley, 60 mg/kg",100%
same,Tmax,"in vivo; male, Sprague-Dawley, 60 mg/kg",1 h
same,half-life,"in vivo; male, Sprague-Dawley, 60 mg/kg",5.6 ± 1.7 h
same,solubility,[1],0.18 mg/mL
same,Recovery rate (%),"MK-801 treated mice; MK801-treated mice, dosage of clozapine 1 mg/kg (benzoic acid salt study)",65.1%
same,Recovery rate (%),MK-801 treated mice; [5],57%
same,Recovery rate (%),MK-801 treated mice; [6],79%
same,"Open-field test, anti-hyperactivity effect (formula [formula] not readable)",MK-801 treated mice; clozapine 1 mg/kg,18.77%
CN1CCN(C2=Nc3cc(Cl)ccc3Nc3ccccc32)CC1.O=C(O)c1cccnc1 [clozapine:nicotinic acid 1:1 salt],T1/2,in vivo,3.2 ± 1.4 h
same,Tmax,in vivo,0.8 h
same,AUC Increased (%),in vivo; 60 mg/kg,161.8%
same,reduction of clozapine-induced hyperglycemia,[2],46.8%
same,Recovery rate (%),MK-801 treated mice; [5],86%
same,Recovery rate (%),MK-801 treated mice; [6],100%
"NCC1(CC(=O)O)CCCCC1 [gabapentin, reference compound]",paw withdrawal threshold compared to vehicle control group,mice,no difference from control group at any time point examined
same,AUC values of von Frey pain threshold compared to vehicle control group,mice,little to no effect
same,Pain threshold to time AUC after 120 min,mice,1.28
"Cc1cc2c(s1)Nc1ccccc1N=C2N1CCN(C)CC1 [olanzapine, reference compound]",Recovery rate (%),"MK-801 treated mice; MK801-treated mice, dosage of olanzapine 0.1 mg/kg",36.8%
same,Open-field test effect (formula [formula] not readable),MK-801 treated mice; olanzapine 0.5 mg/kg,85.8%
same,"Open-field test, anti-hyperactivity effect (formula [formula] not readable)",MK-801 treated mice; olanzapine 0.5 mg/kg,30.53%
"Cc1nc2n(c(=O)c1CCN1CCC(c3noc4cc(F)ccc34)CC1)CCCC2O (stereo not drawn) [paliperidone, reference compound]",Carr Index,[3],29%
same,solubility,[1],0.29 mg/mL
same,Open-field test effect (formula [formula] not readable),MK-801 treated mice; [7],50.3%
same,Open-field test effect (formula [formula] not readable),MK-801 treated mice; [8],50.3%
same,locomotor activity in MK-801 treated mice,MK-801 treated mice; [9],alleviates MK-801 induced hyperactivity
same,locomotor activity in MK-801 treated mice,MK-801 treated mice; [10],alleviates MK-801 induced hyperactivity
"Cc1nc2n(c(=O)c1CCN1CCC(c3noc4cc(F)ccc34)CC1)CCCC2O.O=C(O)c1ccccc1 (stereo not drawn) [paliperidone:benzoic acid 1:1 salt, Paliperidone:Benzoic Acid 1:1 Salt]",Carr Index,[3],13%
same,water solubility,[1],10.4 mg/mL
same,Open-field test effect (formula [formula] not readable),MK-801 treated mice; [7],85.0%
same,locomotor activity in MK-801 treated mice,MK-801 treated mice; [9],"significant decrease in locomotion activity, compared with paliperidone group"
Cc1nc2n(c(=O)c1CCN1CCC(c3noc4cc(F)ccc34)CC1)CCCC2O.O=C(O)c1cccnc1.O=C(O)c1cccnc1 (stereo not drawn) [paliperidone:nicotinic acid 1:2 salt],Carr Index,[3],29%
same,water solubility,[1],137.3 mg/mL
same,Open-field test effect (formula [formula] not readable),MK-801 treated mice; [8],89.7%
same,locomotor activity in MK-801 treated mice,MK-801 treated mice; [10],"significant decreases in locomotion activity, compared with paliperidone group"
"OCCOCCN1CCN(C2=Nc3ccccc3Sc3ccccc32)CC1 [quetiapine, reference compound]",Open-field test effect (formula [formula] not readable),MK-801 treated mice; quetiapine 10 mg/kg,8.7%
same,locomotor activity in MK-801 treated mice,MK-801 treated mice; [11],alleviates MK-801 induced hyperactivity
"O=C(O)/C=C/C(=O)O.OCCOCCN1CCN(C2=Nc3ccccc3Sc3ccccc32)CC1 [quetiapine:fumaric acid 1:1 salt, reference compound]",Carr Index,[3],33%
O=C(O)c1cccnc1.OCCOCCN1CCN(C2=Nc3ccccc3Sc3ccccc32)CC1 [quetiapine:nicotinic acid 1:1 salt],Carr Index,[3],20%
same,Blood glucose level compared to vehicle after 120 min,[4],1.00
same,water solubility,[1],262 mg/mL
same,Open-field test effect (formula [formula] not readable),MK-801 treated mice; quetiapine 10 mg/kg,53.1%
same,locomotor activity in MK-801 treated mice,MK-801 treated mice; [11],"significant decrease in locomotion activity, compared with quetiapine group"
"Cc1nc2n(c(=O)c1CCN1CCC(c3noc4cc(F)ccc34)CC1)CCCC2 [risperidone, reference compound]",solubility,[1],< 0.005 mg/mL
same,Open-field test effect (formula [formula] not readable),MK-801 treated mice; [12],48.7%
same,locomotor activity in MK-801 treated mice,MK-801 treated mice; [13],alleviates MK-801 induced hyperactivity
"Cc1nc2n(c(=O)c1CCN1CCC(c3noc4cc(F)ccc34)CC1)CCCC2.O=C(O)c1cccnc1 [risperidone:nicotinic acid 1:1 salt, resperidone:nicotinic acid 1:1 salt]",water solubility,[1],2170.77 mg/mL
same,Open-field test effect (formula [formula] not readable),MK-801 treated mice; [12],80.1%
same,locomotor activity in MK-801 treated mice,MK-801 treated mice; [13],higher potency to MK-801-induced hyperactivity
gabapentin:enriched tannic acid 1:1 salt,paw withdrawal threshold compared to vehicle control group,mice,significantly higher at 60 and 120 min
same,AUC values of von Frey pain threshold compared to vehicle control group,mice,significantly higher
same,AUC of von Frey pain threshold relative to gabapentin group,mice,about twice as high as in gabapentin group
gabapentin:enriched tannic acid 2:1 salt,paw withdrawal threshold compared to vehicle control group,mice,significantly higher at 30 min
gabapentin:enriched tannic acid 3:1 salt,paw withdrawal threshold compared to vehicle control group,mice,"significantly higher at 30, 60 and 120 min after administration"
same,AUC values of von Frey pain threshold compared to vehicle control group,mice,significantly higher
same,AUC of von Frey pain threshold relative to gabapentin group,mice,about twice as high as in gabapentin group
same,Pain threshold to time AUC after 120 min,mice,2.80
olanzapine:enriched tannic acid 2:1 salt,"Open-field test, anti-hyperactivity effect (formula [formula] not readable)",MK-801 treated mice; olanzapine 0.5 mg/kg,112.82%
olanzapine:pantothenic acid 5:1 salt,Open-field test effect (formula [formula] not readable),MK-801 treated mice; olanzapine 0.5 mg/kg,101.0%
same,locomotor activity in MK-801 treated mice,MK-801 treated mice; oral olanzapine 0.5 mg/kg or 5:1 salt 0.547 mg/kg,higher potency to MK-801-induced hyperactivity
